Several values for one entry are separate records, joined by “and”; a condition that tells them apart may be missing. Identical values can stand only once.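 The compound was tested at five concentrations on cells cultured in 96-well plates, with a 48-hour exposure period. The concentration for 50% growth inhibition is given as GI50. Definition used: TGI = concentration required for complete inhibition of growth.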
What was measured:
Assay in all cases: inhibition of tumour cell growth, NCI panel, 48 h
[1] = system: A549 NSCLC
[2] = system: ACHN renal
[3] = system: COLO 205 colon
[4] = system: DU-145 prostate
[5] = system: HOP-62 NSCLC
[6] = system: IGROV1 ovarian
[7] = system: M14 melanoma
[8] = system: MOLT-4 leukemia
[9] = system: SW-620 colon
[10] = system: T-47D breast

## Cc1ccc(C)c(N2C(=O)C(=O)c3c(C)ccc(C)c32)c1
[1]
  TGI: > 100 µM
[2]
  TGI: 33.4 µM
[3]
  TGI: > 100 µM
[4]
  TGI: > 100 µM
[5]
  TGI: > 100 µM
[6]
  TGI: 43.4 µM
[7]
  TGI: 39.6 µM
[8]
  TGI: 48.8 µM
[9]
  TGI: > 100 µM
[10]
  TGI: 68.3 µM

## O=C(Nc1cccc(-n2cc(-c3ccncc3)c(-c3ccc(O)c(Cl)c3)n2)c1)c1ccc(N2CCOCC2)c(C(F)(F)F)c1
[1]
  GI50: 2 µM
  TGI: > 50 µM
[2]
  GI50: 2.18 µM
  TGI: > 50 µM
[3]
  GI50: 4.62 µM
  TGI: > 50 µM
[4]
  GI50: > 50 µM
  TGI: > 50 µM
[5]
  GI50: 3.07 µM
  TGI: > 50 µM
[6]
  GI50: > 50 µM
  TGI: > 50 µM
[7]
  GI50: 2.75 µM
  TGI: > 50 µM
[8]
  GI50: 2.33 µM
  TGI: > 50 µM
[9]
  GI50: 4.05 µM
  TGI: > 50 µM
[10]
  GI50: 2.99 µM
  TGI: > 50 µM

## CN1CCN(CCCN2c3ccccc3Sc3ccc(C(F)(F)F)cc32)CC1
[1]
  GI50: 2.31 µM
  TGI: 6.47 µM and 24.5 µM and 25.2 µM
[2]
  GI50: 2.1 µM
  TGI: 4.67 µM and 23.3 µM and 24.7 µM
[3]
  GI50: 1.64 µM and 1.8 µM and 3.87 µM
  TGI: 3.15 µM and 3.65 µM and 9.3 µM
[4]
  GI50: 2.39 µM
  TGI: 5.48 µM and 23.3 µM and 30.1 µM
[5]
  GI50: 1.73 µM
  TGI: 3.94 µM and 24.9 µM and 26.5 µM
[6]
  GI50: 2.19 µM and 3.77 µM and 9.9 µM
  TGI: 4.98 µM and 11.9 µM and 23 µM
[7]
  TGI: 3.53 µM and 3.38 µM and 3.35 µM
[8]
  GI50: 2.35 µM
  TGI: 4.92 µM and 10.8 µM and 20.6 µM
[9]
  GI50: 1.85 µM and 3.67 µM and 8.47 µM
  TGI: 4.44 µM and 18.1 µM and 21.4 µM
[10]
  GI50: 1.6 µM
  TGI: 3.63 µM and 20.2 µM and 23.1 µM

## COc1cc([N+](=O)[O-])c(OC)cc1-c1nc2n(c1/C(N)=N/C(=N)N)CCS2
[1]
  GI50: 59.3 µM
  TGI: > 100 µM
[2]
  GI50: 12.3 µM
  TGI: > 100 µM
[3]
  GI50: > 100 µM
  TGI: > 100 µM
[4]
  GI50: 50.4 µM
  TGI: > 100 µM
[5]
  GI50: 6.23 µM
  TGI: 50.6 µM
[6]
  GI50: 17.7 µM
  TGI: > 100 µM
[7]
  GI50: > 100 µM
  TGI: > 100 µM
[8]
  GI50: > 100 µM
  TGI: > 100 µM
[9]
  GI50: > 100 µM
  TGI: > 100 µM
[10]
  GI50: 86.8 µM
  TGI: > 100 µM

## O=c1cc(-c2ccccc2)nc2cc(-c3ccco3)[nH]n12
[1]
  GI50: 12.6 µM
  TGI: > 100 µM
[2]
  GI50: 22.6 µM
  TGI: > 100 µM
[3]
  GI50: 6.65 µM
  TGI: 44 µM
[4]
  GI50: 19.5 µM
  TGI: 79.7 µM
[5]
  GI50: 13.4 µM
  TGI: > 100 µM
[6]
  GI50: 7.91 µM
  TGI: 60 µM
[7]
  GI50: 9.45 µM
  TGI: > 100 µM
[8]
  GI50: 10.7 µM
  TGI: > 100 µM
[9]
  GI50: 4.51 µM
  TGI: > 100 µM
[10]
  GI50: 4.44 µM
  TGI: > 100 µM

## COc1ccc2c(c1)c(-c1nc(-c3cn(C)c4ncccc34)cs1)cn2CCCCN1CCOCC1
[1]
  GI50: 1.71 µM
  TGI: 3.71 µM
[2]
  GI50: 1.59 µM
  TGI: 2.99 µM
[3]
  GI50: 1.69 µM
  TGI: 3.56 µM
[4]
  GI50: 1.71 µM
  TGI: 5.05 µM
[5]
  GI50: 1.76 µM
  TGI: 3.64 µM
[6]
  GI50: 2.66 µM
  TGI: 10.4 µM
[7]
  GI50: 0.606 µM
  TGI: 1.28 µM
[8]
  GI50: 0.951 µM
  TGI: 2.8 µM
[9]
  GI50: 0.745 µM
  TGI: 1.92 µM
[10]
  GI50: 7.08 µM
  TGI: 29 µM

## COc1cc(C(=O)Nc2cc(O)c(C/C=C(\C)CCC=C(C)C)c(O)c2)cc2c1O[C@]1(C)CC[C@@H](O)C(C)(C)[C@H]1C2
[1]
  GI50: 0.381 µM and 0.214 µM
  TGI: 13.9 µM
[2]
  GI50: 1.22 µM
  TGI: 13.1 µM
[3]
  GI50: 0.386 µM and 0.678 µM
  TGI: 4.25 µM and 5.32 µM
[4]
  GI50: 1.88 µM and 0.331 µM
  TGI: 13.1 µM
[5]
  GI50: 0.0537 µM and 0.176 µM
  TGI: 6.97 µM
[6]
  GI50: 3.37 µM and 0.881 µM
  TGI: 19.5 µM
[7]
  GI50: 0.0984 µM and 0.0812 µM
  TGI: 4.76 µM and 1.91 µM
[8]
  GI50: 0.0298 µM
  TGI: 1.54 µM
[9]
  GI50: 0.0899 µM and 0.159 µM
  TGI: 1.84 µM and 15.6 µM
[10]
  GI50: 0.401 µM and 0.69 µM
  TGI: 4.88 µM

## Nc1ncnc2c1c(C(=O)NO)cn2C1OC(CO)C(O)C1O (configuration not stated)
[1]
  GI50: 0.462 µM
  TGI: > 40.4 µM
[2]
  GI50: 0.203 µM
  TGI: 1.15 µM
[3]
  GI50: 0.279 µM
  TGI: 1.55 µM
[4]
  GI50: 0.224 µM
[5]
  GI50: 0.38 µM
  TGI: > 22 µM
[6]
  GI50: 0.279 µM
[7]
  GI50: 0.285 µM
  TGI: 1.53 µM
[8]
  GI50: 0.306 µM
  TGI: 1.66 µM
[9]
  GI50: 0.252 µM
  TGI: > 31.7 µM
[10]
  GI50: 0.0885 µM
  TGI: 1.39 µM

## Cc1csc(-c2ccc3c(c2)COC3(CCCN(C)C)c2ccc(F)cc2)c1 (configuration not stated)
[1]
  GI50: 2.02 µM
  TGI: 4.24 µM
[2]
  GI50: 1.74 µM
  TGI: 3.14 µM
[3]
  GI50: 2.59 µM
  TGI: 5.64 µM
[4]
  GI50: 1.91 µM
  TGI: 3.56 µM
[5]
  GI50: 1.67 µM
  TGI: 3.42 µM
[6]
  GI50: 1.67 µM
  TGI: 3.32 µM
[7]
  GI50: 1.81 µM
  TGI: 3.59 µM
[8]
  GI50: 2.55 µM
  TGI: 6.69 µM
[9]
  GI50: 1.8 µM
  TGI: 3.51 µM
[10]
  GI50: 1.85 µM
  TGI: 4.62 µM

## O=C(Nc1ccc(O)c(NS(=O)(=O)c2ccc(F)cc2)c1)c1ccc(-c2ccccc2)cc1
[1]
  GI50: 4.81 µM
  TGI: 29.9 µM
[2]
  GI50: 6.3 µM
  TGI: 25.7 µM
[3]
  GI50: 15.6 µM
  TGI: 31.2 µM
[4]
  GI50: 11.7 µM
  TGI: 26.3 µM
[5]
  GI50: 19.9 µM
  TGI: 40.2 µM
[6]
  GI50: 4.65 µM
  TGI: 20.5 µM
[7]
  GI50: 7.32 µM
  TGI: 21.6 µM
[8]
  GI50: 2.58 µM
  TGI: 11 µM
[9]
  GI50: 7.23 µM
  TGI: 22.2 µM
[10]
  GI50: 3.07 µM
  TGI: 18.4 µM

## Cc1nc2sc(C(=O)Nc3cccc(Cl)c3C)c(N)c2cc1C(=O)c1ccccc1
[1]
  GI50: 0.245 µM
  TGI: > 50 µM
[2]
  GI50: 0.344 µM
  TGI: > 50 µM
[3]
  GI50: 0.293 µM
  TGI: 5.02 µM
[4]
  GI50: 0.524 µM
  TGI: > 50 µM
[5]
  GI50: 0.296 µM
  TGI: > 50 µM
[6]
  GI50: 0.419 µM
  TGI: > 50 µM
[7]
  GI50: 0.214 µM
  TGI: > 50 µM
[8]
  GI50: 0.254 µM
  TGI: > 50 µM
[9]
  GI50: 0.209 µM
  TGI: > 50 µM
[10]
  GI50: 0.245 µM
  TGI: > 50 µM

## CS(=O)(=O)c1ccc(-c2[nH]c3ccc(F)cc3c2/C=N/NC(N)=S)cc1
[1]
  GI50: 2.86 µM
  TGI: > 100 µM
[2]
  GI50: 2.17 µM
  TGI: > 100 µM
[3]
  GI50: 1.47 µM
  TGI: 5.14 µM
[4]
  GI50: 2.24 µM
  TGI: > 100 µM
[5]
  GI50: 1.64 µM
  TGI: > 100 µM
[6]
  GI50: 4.95 µM
  TGI: > 100 µM
[7]
  GI50: 0.312 µM
  TGI: 22.3 µM
[8]
  GI50: 0.981 µM
  TGI: 24 µM
[9]
  GI50: 0.575 µM
  TGI: > 100 µM
[10]
  GI50: 12.3 µM
  TGI: 85 µM

From PubChem BioAssay (NCI)
